Assay results published in publication PMC7129073 (Clinical Microbiology and Infection, 2015).
Converted amounts (≈) assume the structure as drawn. Like-named read-outs stand apart in the source and are kept apart here.

Columns and labels:
[1] = test system: Pseudomonas putida clinical isolates; assay: Agar dilution MIC; format: cell-based
[2] = test system: Nocardia spp.; assay: E-test on Mueller Hinton agar, 81 clinical isolates; format: cell-based
[3] = test system: Acinetobacter; assay: Disk diffusion; format: cell-based; details: 37 isolates selected as resistant to beta-lactams
[4] = test system: C. albicans; assay: Antifungal susceptibility; format: cell-based, Candida albicans
[5] = test system: C. parapsilosis; assay: Antifungal susceptibility; format: cell-based, Candida parapsilosis
[6] = test system: Shigella spp.; assay: Disk diffusion, stool isolates Tehran; format: cell-based; details: 96 isolates
[7] = test system: S. pneumoniae; format: cell-based, Streptococcus pneumoniae
[8] = test system: N.gonorrhoeae; assay: microbe, parasite or virus in culture; format: cell-based; details: Neisseria gonorrhoeae
[9] = test system: Salmonella enterica; assay: VITEK, NCCLS microdilution and disc diffusion of quinolones; format: cell-based
[10] = test system: glycopeptide intermediate Staphylococcus species (GISS); assay: VITEK II, screening plate and E test, blood isolates; format: cell-based, coagulase-negative Staphylococci
[11] = test system: Streptococcus agalactiae strains P0162 and P0425; assay: Microdilution; format: cell-based
[12] = test system: Pseudomonas aeruginosa (PSA); assay: Vitek 2 susceptibility, urine isolates of children; format: cell-based; details: both departments
[13] = Phase 3 trial, complicated intra-abdominal infections; format: in vivo, human
[14] = test system: viridans group streptococci (VGS); assay: MIC; format: cell-based; details: 107 strains, 1990–2003
[15] = test system: viridans group streptococci (VgS) and Streptococcus bovis; assay: Broth microdilution and disk diffusion; format: cell-based; details: nine species

CN(C)c1ccc(O)c2c1C[C@H]1C[C@H]3[C@H](N(C)C)C(O)=C(C(N)=O)C(=O)[C@@]3(O)C(O)=C1C2=O [minocycline]
MIC [1]: > 16 µg/mL
MIC50 ([2]; Nocardia): 1.5 µg/mL (≈ 3.28 µM)
MIC90 ([2]; Nocardia): 3 µg/mL (≈ 6.56 µM)
MIC range ([2]; read after 48 and 72 h): 0.016 to 4 µg/mL
resistant isolates [3]: 45.9%

C[C@@H]1[C@H](O)[C@@H](C)/C=C/C=C/CC/C=C/C=C/C=C/C=C/C(O[C@H]2O[C@H](C)[C@@H](O)[C@H](N)[C@@H]2O)CC2O[C@](O)(CC(O)C(O)CCC(O)CC(O)CC(O)CC(=O)O[C@H]1C)CC(O)C2C(=O)O (some centres unmarked) [nystatin]
intermediate susceptibility [4]: 2%
resistance [4]: 2%
resistant [5]: 10%

CC1COc2c(N3CCN(C)CC3)c(F)cc3c(=O)c(C(=O)O)cn1c23 (centres unmarked) [ofloxacin]
sensitive [6]: 100%
resistant [7]: 0%
MIC ([8]; strain 76mu6): 8 µg/mL (≈ 22.1 µM)
MIC ([8]; strain 76mu10): 8 µg/mL (≈ 22.1 µM)
MIC ([8]; strain 92mu6): 4 µg/mL (≈ 11.1 µM)
MIC ([8]; strain 92mu13): 4 µg/mL (≈ 11.1 µM)
MIC ([9]; read-out: NCCLS MIC, 37 NAL-R strains): 0.25 to 1 µg/mL (≈ 0.692 to 2.77 µM)
MIC ([9]; read-out: NCCLS MIC, NAL-S strains): ≤ 0.06 µg/mL
resistance rate ([10]; 73 GISS strains): 84,9%
resistant isolates [3]: 43.2%

C[C@H]1COc2c(C3(N)CC3)c(F)cc3c(=O)c(C(=O)O)cn1c23 [pazufloxacin]
MIC [1]: > 128 µg/mL

C[C@@H]1CN(c2c(F)c(N)c3c(=O)c(C(=O)O)cn(C4CC4)c3c2F)C[C@H](C)N1 [sparfloxacin]
MIC [1]: > 128 µg/mL
MIC ([11]; strain P0162 (ParC Ser79Phe, GyrA Glu85Ala)): 4 µg/mL (≈ 10.2 µM)
MIC ([11]; strain P0425 (ParC Ser79Phe, GyrA Glu85Lys)): > 32 µg/mL

CC1(C)S[C@@H]2[C@H](NC(=O)[C@H](C(=O)O)c3ccsc3)C(=O)N2[C@H]1C(=O)O [ticarcillin]
Susceptible isolates [12]: 74-100%
resistant isolates [3]: 86.5%

imipenem/cilastatin [IMI/CIS]
clinical cure rate at TOC, ME group ([13]; TGC 100 mg then 50 mg q12h iv, IMI/CIS 500/500 mg q6h, 5–14 days): 82.4%
nausea ([13]; adverse events): 24.8%
vomiting ([13]; adverse events): 19.4%
clinical cure rate at TOC, m-mITT cohort ([13]; same regimens): 78.2%

quinupristin/dalfopristin
MIC50 [14]: 0.5 µg/mL
MIC90 [14]: 2 µg/mL
sensitivity of all GISS strains [10]: all GISS strains demonstrated sensitivity
% S, range between species [15]: 99.0 – 100.0%
